According to US20050221337A1, “Microarrays and microspheres comprising oligosaccharides, complex carbohydrates or glycoproteins” (priority 2003, published 2005):

T1: cyanovirin-N (CVN) (Nostoc ellipsosporum, UniProt P81180)
T1 sequence (P81180 1-101): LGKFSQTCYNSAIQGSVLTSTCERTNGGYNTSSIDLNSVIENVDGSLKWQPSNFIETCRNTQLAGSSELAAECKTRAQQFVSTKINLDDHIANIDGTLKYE

T2: CVN (Nostoc ellipsosporum, UniProt P81180)
T2 sequence (P81180 1-101): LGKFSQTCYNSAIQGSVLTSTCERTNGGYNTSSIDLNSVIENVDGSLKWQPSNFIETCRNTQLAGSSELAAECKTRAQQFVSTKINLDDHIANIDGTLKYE


Key:
Concanavalin A (ConA) [1] = molecular target: T3, Concanavalin A (ConA) (Canavalia ensiformis, UniProt P02866); assay: Carbohydrate microarray incubated with FITC-labeled ConA, fluorescence scan; format: binding; settings: FITC-ConA 25 μg mL^−1, 1 hour, room temperature; 120 μm spots on maleimide-BSA slide
Description: Protein-carbohydrate interactions were examined using the mannose/glucose specific lectin Concanavalin A (ConA). Microarrays were constructed through the maleimide derivatization of BSA coated glass slides to create a thiol-reactive surface (FIG. 1). Thiol derivatized mannose and galactose were printed as 120 μm spots using a microarray printing robot. The remaining maleimide groups were subsequently quenched with a solution of 3-mercaptopropionic acid to render the slides unreactive to cysteine containing proteins. The carbohydrate microarrays were incubated with a solution of FITC-labeled ConA. The arrays were thoroughly rinsed with buffer, dried by centrifugation and scanned with a fluorescence slide scanner. […] Utilizing proteins conjugated to fluorophores of non-overlapping excitation and-emission spectra enabled facile two-color detection. […] See Bidlingmaier, S.; Synder, M. Chemistry and Biology 2002, 9, 400. […]
Detection of protein-carbohydrate interactions: In experiments involving FITC labeled ConA (Sigma), the lectin was used at 25 μg mL^−1 in 10 mM HEPES-BSA buffer (pH 7.5, 1 mM CaCl2, 1 mM MnCl2, 100 mM NaCl, 1% (w/v) BSA). […] To visualize fluorescence, the slides were scanned using an ArrayWoRx fluorescence slide scanner (Applied Precision).

cyanovirin-N (CVN) = molecular target: T1, cyanovirin-N (CVN); assay: High-mannose oligosaccharide microarray incubated with BODIPY-labeled CVN, fluorescence scan; format: binding, Nostoc elliposporum; settings: for BODIPY-labeled CVN fluorescence (binding) on immobilized saccharide spots: BODIPY-CVN 25 μg mL-1, 1 hour, room temperature, BSA coated slide; for CVN spot fluorescence intensity relative to nonamannoside (normalized to background): higher printed concentrations 1 mM-0.5 mM (FIG. 9)
Method: Using the aforementioned thiol terminated linker, a series of high-mannose oligosaccharides were prepared (Scheme 6). Arrays were printed on a BSA coated slide, as above, varying the concentration of printed oligosaccharide, and blocked with 3-mercaptoproprionic acid.
It was of interest to establish whether the microarray platform may serve to probe relative affinities of CVN for the different high-mannose structures. A microarray containing the four oligosaccharide structures was prepared with carbohydrate concentrations ranging from 0.008 mM to 2 mM. […] At lower dilutions, however, this trend is reversed. This discrepancy from the isocalorimetry data can be explained by the density of covalently immobilized saccharide at saturating concentrations. We hypothesize that the size of the nonasaccharide, compared to the other structures immobilized, might sterically occlude reactive sites leading to decreased amounts of immobilized structure. As previously observed, two distinct CVN binding domains can each interact with a single α1,2-linked linear trimannoside. We reason that a higher surface concentrations of 3 permits this multivalent interaction to take place.
Functionalization of slides: SuperAldehyde slides (TeleChem International) were immersed in 50 mL phosphate buffered saline (PBS) containing 1% bovine serum albumin (BSA; w/v) and incubated overnight at room temperature. The slides were rinsed twice with distilled H2O (100 mL), twice with 95% ethanol (50 mL) and then dried under a stream of dry Ar. Thereafter the slides were immersed in 45 mL of anhydrous DMF (Aldrich) containing 65 mg succinimidyl-4-(Nmaleimidomethyl)cyclohexane-1-carboxyiate. (Pierce Chemical) and 100 mM N,N-Diisopropylethylamine (Aldrich). The slides were incubated in this solution for 24 hours at room temperature, washed 4 times with 95% ethanol (50 mL) and then stored in a vacuum dessicator until used for microarray fabrication.
Microarray fabrication: Thiol functionalized carbohydrates were incubated 1 hr at room temperature with 1 equivalent tris-(carboxyethyl)phosphine hydrochloride (TCEP) in 1×PBS, and printed on the maleimide derivitized glass slides using a MicroGrid TAS array printer. Prints were performed at 30% humidity using either a 16-pin or 32-pin format, with a spot size of 120 μm and a distance of 300 μm between the centers of adjacent spots. Thereafter, the slides were stored in a humid chamber at room temperature for 12 hours, washed 2 times with distilled H2O, and then incubated for 1 hour in 1 mM 3-mercaptopropionic acid in PBS (50 mL) to quench all remaining maleimide groups. The slides were washed three times with distilled H2O (50 mL), two times with 95% ethanol (50 mL) and then stored in a vacuum dessicator until used for binding experiments.
Detection of protein-carbohydrate interactions: In experiments involving FITC labeled ConA (Sigma), the lectin was used at 25 μg mL^−1 in 10 mM HEPES-BSA buffer (pH 7.5, 1 mM CaCl2, 1 mM MnCl2, 100 mM NaCl, 1% (w/v) BSA). In experiments involving BODIPY-labeled CVN, the CVN was used at 25 μg mL-1 in 10 mM PBS containing 1% BSA. For all incubations, 0.55 mL of protein solution was applied to the slide using a PC500 CoverWell incubation chamber (Grace BioLabs). Following a 1 hour incubation at room temperature, the slides were washed three times with 50 mL of the same buffer used in the incubation, twice with 50 mL distilled H2O and then centrifuged at 200 g for 5 minutes to ensure complete dryness. To visualize fluorescence, the slides were scanned using an ArrayWoRx fluorescence slide scanner (Applied Precision).

Concanavalin A (ConA) [2] = molecular target: T3, Concanavalin A (ConA)
cyanovirin N (CV-N) = cyanovirin N (CV-N) (Nostoc ellipsosporum, UniProt P81180); assay: Fiber optic microsphere array incubated with BODIPY-labeled CV-N; format: binding; settings: CV-N 50 μg mL^−1, five minutes; excitation 488 nm
Description: Five synthetic carbohydrates (1,3-6) were immobilized on microspheres carrying a unique internal code for each structure. A small aliquot of each of the five dispersions was mixed together and used to microsphere array.
At five minutes the CV-N solution was removed and replaced with a fresh buffer solution. BODIPY excitation wavelength (488 nm) was passed through the optical fiber and BODIPY emission wavelengths were collected on the CCD camera. Three of the five structures (3,5,6) present were bound by CV-N in accordance with isothermal microcalorimetry studies P. H. Seeberger et al. Chemistry and Biology 2002, 9, 1109.

CVN = molecular target: T2, CVN; settings: recent isothermocalorimetry and NMR study; read-out: Kd of CVN binding; cited from earlier work
HIV strains = settings: natural and recombinant forms of CVN; cited from earlier work
host cells = settings: natural and recombinant forms of CVN; cited from earlier work

Molecule | BODIPY-labeled CVN fluorescence (binding) on immobilized saccharide spots (cyanovirin-N (CVN)) | CVN spot fluorescence intensity relative to nonamannoside (normalized to background) (cyanovirin-N (CVN)) | BODIPY-labeled CV-N binding to oligosaccharide-bearing beads (cyanovirin N (CV-N)) | Kd (CVN) | also measured
O=C[C@H](O)[C@@H](O)[C@@H](O)[C@H](O)CO [compound 2, galactose] | no binding activity | – | – | – | FITC-labeled ConA fluorescence on immobilized saccharide spots (Concanavalin A (ConA) [1]): no fluorescence; fluorescence of beads in dilution series of labeled ConA (Concanavalin A (ConA) [2]; labeled ConA 0 to 400 μg mL^−1, very high lectin concentrations (FIG. 18)): no increase in fluorescence; labeled ConA binding to saccharide-bearing beads (rhodamine fluorescence) (Concanavalin A (ConA) [2]; labeled ConA 50 μg mL^−1, five minutes): no ConA was observed
branched trimannoside [compound 4] | no binding activity | – | – | – | –
hexamannoside [compound 5] | fluorescence was detected | higher fluorescence intensities than the nonamannoside | bound by CV-N | – | –
linear trimannoside [compound 3] | fluorescence was detected | higher fluorescence intensities than the nonamannoside | bound by CV-N | 3480 nM | –
nonamannoside [compound 6] | fluorescence was detected | – | bound by CV-N | 270 nM | CVN fluorescence signal in dilution series microarray at low printed concentrations (cyanovirin-N (CVN); printed carbohydrate 0.008 mM to 2 mM (FIG. 8)): showed discernable fluorescence at concentrations where the signals of the other structures were unobservable
CVN: HIV-inactivating 11 kDa protein from Nostoc ellipsosporum that binds high-mannose oligosaccharides of gp120 (protein, UniProt P81180 1-101, looked up) Cyanovirin-N: LGKFSQTCYNSAIQGSVLTSTCERTNGGYNTSSIDLNSVIENVDGSLKWQPSNFIETCRNTQLAGSSELAAECKTRAQQFVSTKINLDDHIANIDGTLKYE | – | – | – | – | inactivation of HIV strains (HIV strains): irreversibly inactivate a wide variety of HIV strains; toxicity to host cells (host cells): minimal toxicity to host cells
